# Literature values in the CATMoS acute toxicity set (Mansouri et al. 2021).
# Assay: rat acute oral toxicity
# Details: in vivo
row,Structure (SMILES),LD50 [mg/kg]
1,COCCOC(=O)C1=C(C)NC(C)=C(C(=O)OC/C=C/c2ccccc2)C1c1cccc([N+](=O)[O-])c1 (stereo not drawn),4410
2,C=CCNCC=C,578
3,CCCc1ccc2c(c1)OCO2,2260
4,CC(=O)Oc1ccccc1C=CC(=O)O,3150
5,CO[C@@H]1[C@@H](O[C@@H]2O[C@H](C)[C@@H](O[C@H]3C[C@@](C)(O)[C@@H](OC(=O)CC(C)C)[C@H](C)O3)[C@H](N(C)C)[C@H]2O)[C@@H](CC=O)C[C@@H](C)[C@@H](O)C=CC=CC[C@@H](C)OC(=O)C[C@H]1O,6990
6,CC1(C)[C@H]2CC[C@](C)(O)[C@@H]1C2,2050
7,O=S1(=O)CC(Cl)(Cl)C(Cl)(Cl)C1,87
8,CCCCCCCCCCCCN1CC(C)OC(C)C1 (stereo not drawn),3500
9,C[N+](C)([O-])CCC=C1c2ccccc2CCc2ccccc21,1800
10,CCOP(=O)(OC=C(Cl)Cl)OCCCl (stereo not drawn),5
11,CN1CC(CCN2CC=C(c3ccccc3)CC2)OC1=O (stereo not drawn),340
12,CCOC(=O)c1ncn2c1CN(C)C(=O)c1cc(F)ccc1-2,4200
13,O=C1NCCCN1Cc1ccc(Cl)c(Cl)c1,815
14,C=CC(O)C#N (stereo not drawn),65
15,CNCC(O)c1ccc(OC(=O)C(C)(C)C)c(OC(=O)C(C)(C)C)c1 (stereo not drawn),183
16,Oc1c(Cl)cc(Cl)c(Cl)c1Cl,140
17,O=C1OC(=O)C2CC=CCC12 (stereo not drawn),5410
18,CC(C)C(=O)N(C)C(=O)Oc1cccc(C(C)C)c1,631
19,CC(C)c1cc([N+](=O)[O-])cc([N+](=O)[O-])c1O,63
20,N#CC(O)c1cccc(Oc2ccccc2)c1 (stereo not drawn),800
21,NC(=O)C1(N2CCCCC2)CCN(CCCN2c3ccccc3CCc3ccccc32)CC1,1020
22,Oc1cccc(Cl)c1-c1ccccc1,3500
23,Cc1cc(C)c(C2C(=O)c3ccccc3C2=O)c(C)c1,1000

row,Structure (SMILES),LD50 [mg/kg]
1,CCN(CC(=O)OCC(F)(F)F)c1cccc(C)c1,1900
2,CNC(=O)Nc1c(OCCN2CCCC2)c(OC)c2occc2c1OC,1050
3,COP(=O)(OC)C(OC(C)=O)=C(Cl)Cl,300
4,O=S1(=O)CCC(NNc2ccccc2)C1 (stereo not drawn),2380
5,CCOC(=O)c1c(N)sc2c1CCN(Cc1ccccc1)C2,1200
6,CC(=O)Oc1ccc(Oc2c(I)cc(C(=O)O)cc2I)cc1I,4600
7,Cc1cccc(Cl)c1NC(=O)/C=C1\SCC(=O)N1C,1350
8,Nc1cc([N+](=O)[O-])ccc1Cl,2020
9,CC(C)=C[C@H]1[C@@H](C(=O)OCc2coc(Cc3ccccc3)c2)C1(C)C,63
10,FC(F)(F)c1ccccc1,15000
11,O=C1CNC(=S)N1,420
12,CCCCc1c(C)nc2ccccn2c1=O,1100
13,CCNc1nc(Cl)nc(NCC)n1,971
14,COc1ccc2c3c1O[C@H]1C(=O)CC[C@H]4[C@@H](C2)N(C)CC[C@]314,375
15,Cc1cc(O)cc(C)c1Cl,3830
16,Cc1c(Br)cc2[nH]c(C(F)(F)F)nc2c1[N+](=O)[O-],83
17,CCCOP(=S)(OCCC)SCC(=O)N1CCCCC1C (stereo not drawn),324
18,CC(C(=O)OCCN1CCN(CCOC(=O)C(C)c2cccc3ccccc23)CC1)c1cccc2ccccc12 (stereo not drawn),5550
19,N/C(CNc1ccc(Cl)c(Cl)c1)=N/O,245
20,CCN(CC)CC(=O)c1c2c(cc3c1CCC3)CCC2,2220
21,Cc1ccc(OP(=O)(Oc2ccc(C)cc2)Oc2ccc(C)cc2)cc1,12800
22,CC(=O)O[C@]1(C)CC[C@@]23C[C@@H]1C(C)(C)[C@@H]2CC[C@H]3C,44800
23,Cc1cc(C(C#N)c2ccc(Cl)cc2)c(Cl)cc1NC(=O)c1cc(I)cc(I)c1O (stereo not drawn),262

row,Structure (SMILES),LD50 [mg/kg]
1,CC(C(=O)O)c1ccc(-c2ccccc2)c(F)c1 (stereo not drawn),117
2,Nc1cccc(C(O)CNC2CC2)c1 (stereo not drawn),3250
3,COC1C(O)CC(=O)OC(C)CC=CC=CC(OC2CCC(N(C)C)C(C)O2)C(C)CC(CC=O)C1OC1OC(C)C(OC2CC(C)(O)C(O)C(C)O2)C(N(C)C)C1O (stereo not drawn),4650
4,CCOC(C1=NCCCCN1)c1ccc(Cl)cc1 (stereo not drawn),370
5,c1ccc(Nc2cccc3ccccc23)cc1,1620
6,CC1=CCC2CC(CC3(CCC(C)C(C(C)C)O3)O2)OC(=O)C2C=C(C)C(O)C3OCC(=CC=CC(C)C1)C23O (stereo not drawn),2470
7,COP(=S)(OC)Oc1cc(C)n(C)c(=O)c1,0.812
8,CCCCCCCCCCCCCCCCOCCOCCOCCOCCOCCOCCOCCOCCOCCOCCOCCOCCOCCOCCOCCOCCOCCOCCOCCOCCO,2500
9,CCCCn1cnnc1,50
10,CCCCC(=O)c1ccc(N)cc1,84
11,NC(N)=O,350
12,O=C1OCc2c(Cl)c(Cl)c(Cl)c(Cl)c21,20000
13,C=C(C)C(=O)OCCOCCOCCOC(=O)C(=C)C,10800
14,ClCC1OC1CCl (stereo not drawn),710
15,CCOP(=O)(NC)Oc1ccc(SC)c(C)c1 (stereo not drawn),5
16,O=C(Cc1ccc(-c2ccccc2)cc1)Nc1ccccn1,1860
17,CC(C)OC(=O)c1cncc(C(=O)OC(C)C)c1,5230
18,COP(=O)(OC)OC(C)=CC(=O)OCc1ccc(Cl)cc1,139
19,COc1cc(Cc2cnc(N)nc2N)cc(OC)c1Br,2510
20,O=C(Nc1ccccc1)Nc1cnns1,5350
21,CCN(CC)NNCCCO,3730
22,C[N+]1(CC2COC(c3ccccc3)(c3ccccc3)O2)CCCCC1 (stereo not drawn),1820
